This note sets out measurements from patent EP3553061A1, “NEW INHIBITORS OF BONE RESORPTION” (CENTRE NATIONAL DE LA RECHERCHE SCIENTIFIQUE (CNRS), priority 2018, dated 2019).

The target of the test is T1, human Dock5 (Homo sapiens, UniProt Q9H7D0).
T1 construct: plasmid expressing the catalytic DHR2 domain of mouse or human Dock5; expressed in transfected cells; host or cells: 293T cells
Description: Pull down assay of Rac activation by human Dock5 DHR2 in transfected 293T cells. The test is classed as cell-based. As to conditions: for pIC50: 1 hour treatment; for inhibition at 100 µM: read-out: Inhibition. Here is the method: Compounds E73, E88 and E78 were tested for their inhibiting effect of the activation of Rac by mouse Dock5 of and for certain human Dock5 according to a screening test using a pull down assay as represented in Figure 1.
Methodology (Figure 1): cells 293T seeded onto 100 mm diameter plates in a DMEM culture medium containing 10% serum in an incubator in 5.5% CO2 humidified atmosphere at 37°C. When they reach the density of 5x10^6 cells per plate, cells are transfected with 8 µg of plasmid expressing the catalytic DHR2 domain of mouse or human Dock5 in order to activate endogenous GTPase Rac. After 24 hours, the cells are lifted using trypsin and are seeded 10^6 per well in 6-well plates of 35 mms in diameter. The following day, the cells are put in contact during one hour with the compound, in a mother solution at 20 mM into 100% DMSO, to a test concentration of 100 µM into 0.5% DMSO in the DMEM medium containing 0.1% of BSA. The basal activation of Rac by Dock5 is measured from the cells treated with 0.5% DMSO. After treatment, the cells are observed under the optical microscope to make sure of the absence of any toxic effect of the compound. If cell suffering is detected, the test is invalidated and the compound is retested at a lower dosage. The cells are then lysed in 100 µl of the pull down buffer (10% glycerol, 50 mm Tris pH 7.4, 100 mM NaCl, 1% IGEPAL® CA-630 (SIGMA I3021), 2 mM MgCl2 supplemented with proteases inhibitors) and the lysate is incubated during one hour with 20 µg of sepharose beads coupled with the fusion protein GST-PAK-CRIB, which binds specifically the activated form of GTPase Rac, which is bound to GTP. After centrifugation and washings, the proteins associated with the beads, including active Rac GTPase, are denatured and loaded on an SDS PAGE gel. […] For each compound tested, the level of active Rac GTPase is quantified using the Image J software and is normalized to the concentration of total protein in the whole cell lysate. The efficiency of the molecule is defined by the level of active Rac after treatment compared to the level of active Rac in the cells treated with DMSO (control). An activity is considered as inhibitory if the level of Rac activation decreases by at least 10%, 20%, in particular at least 30%, 40%, and preferably at least 50% compared to the control treated with DMSO (Table 1).
The same approach was used to test the potency of molecules of the 48ED family, on the activity of human Dock5 DHR2 (Table 2). Table 2: Inhibitory activity of the compounds of the 48ED family on human Dock5 activity.

[1] abbreviates: HEK-293T, Table 3, human Dock5, at 50µM.
Where [2] appears, read: Table 3, human Dock5, test concentration 100 µM, 1 hour, replicate values, 100 µM.
Where [3] appears, read: HEK-293T, Table 3, human Dock5, test concentration 100 µM, 1 hour, replicate values.
Where [4] appears, read: Table 2, human Dock5 DHR2, test concentration 100 µM, 1 hour, replicate values, Negative = Rac activation does not decrease, 100 µM.
Setting [5] is: HEK-293T, Table 2, human Dock5 DHR2, test concentration 100 µM, 1 hour, replicate values, Negative = Rac activation does not decrease.
Where [6] appears, read: Table 2, human Dock5 DHR2, test concentration 100 µM, 1 hour, replicate values, Negative = Rac activation does not decrease.
The mark [7] stands for this setting: Table 3, human Dock5, test concentration 100 µM, 1 hour, replicate values.

One may read the inhibition as the share of the control response that was lost under treatment. By pIC50 is commonly meant the IC50 on a negative log10 scale, so that one unit is a factor of ten. Read a low pIC50 as a large IC50.

pIC50: −log10 of the molar value. Several values for one entry are separate records, joined by “and”; a condition that tells them apart may be missing. Equal entries are not always repeated. Where two headings read alike, the source gives them in different places.

T1 sequence (Q9H7D0 1231-1642 limits assumed): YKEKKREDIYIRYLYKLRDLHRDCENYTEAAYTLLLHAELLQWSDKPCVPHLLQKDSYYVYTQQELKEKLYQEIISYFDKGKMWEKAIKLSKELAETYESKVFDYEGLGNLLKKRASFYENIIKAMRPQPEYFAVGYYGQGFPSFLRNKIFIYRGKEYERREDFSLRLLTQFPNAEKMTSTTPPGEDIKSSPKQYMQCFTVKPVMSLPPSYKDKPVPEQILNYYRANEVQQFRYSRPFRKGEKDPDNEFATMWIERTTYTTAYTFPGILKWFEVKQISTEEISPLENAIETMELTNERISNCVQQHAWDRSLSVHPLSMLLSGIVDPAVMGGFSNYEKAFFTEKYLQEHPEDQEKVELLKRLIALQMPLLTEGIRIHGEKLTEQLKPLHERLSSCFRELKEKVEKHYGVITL

On to `O=S1(=O)N(c2ccccc2)C[C@H](O)[C@]12CCN(Cc1ccccc1Cl)C2` (racemic) [E196, rac-(4S,5R)-7-(2-chlorobenzyl)-4-hydroxy-2-phenyl-1-thia-2,7-diazaspiro[4.4]nonane 1,1-dioxide], for which the inhibition at 50 µM under setting [1] amounted to 40%. The Inhibition under setting [2] is 95% (2×) and 35%. The same compound gave a negative-log IC50 (pIC50) (human Dock5) of 4.46.

On to `O=S1(=O)N(c2ccccc2)C[C@H](O)[C@]12CCN(Cc1cnc3ccccc3c1)C2` (racemic) [E203, rac-(4S,5R)-4-hydroxy-2-phenyl-7-(quinolin-3-ylmethyl)-1-thia-2,7-diazaspiro[4.4]nonane 1,1-dioxide], for which the inhibition at 50 µM under setting [1] turned out to be 95%. Further, the Inhibition (Table 3, human Dock5, at 50µM) stood at 90%. For the same compound, where the note is “human Dock5”, the pIC50 was 4.66. In turn, `Cn1cc(CN2CC[C@@]3(C2)[C@@H](O)CN(c2ccccc2)S3(=O)=O)c2ccccc21` (racemic) [E204, rac-(4S,5R)-4-hydroxy-7-((1-methyl-1H-indol-3-yl)methyl)-2-phenyl-1-thia-2,7-diazaspiro[4.4]nonane 1,1-dioxide] gave an inhibition at 50 µM under setting [1] of 60%. Also, under setting [3], the inhibition at 100 µM was determined as 100%. The compound further yielded an Inhibition under setting [2] of 95%. The compound further gave a negative-log IC50 (pIC50) (human Dock5) of 4.48. The compound `O=S1(=O)N(c2ccccc2)C[C@H](O)[C@]12CCN(Cc1cc3ccccc3o1)C2` (racemic) [E205, rac-(4S,5R)-7-(benzofuran-2-ylmethyl)-4-hydroxy-2-phenyl-1-thia-2,7-diazaspiro[4.4]nonane 1,1-dioxide] had an inhibition at 50 µM under setting [1] of 70%. Moreover, under setting [3], the inhibition at 100 µM is 100%. Also, where the note is “human Dock5”, the pIC50 is 4.37.

Under setting [1], `O=S1(=O)N(c2ccccc2)C[C@H](O)[C@]12CCN(Cc1ccc3c(c1)CCC3)C2` (racemic) [E210, rac-(4S,5R)-7-((2,3-dihydro-1H-inden-5-yl)methyl)-4-hydroxy-2-phenyl-1-thia-2,7-diazaspiro[4.4]nonane 1,1-dioxide] registered an inhibition at 50 µM of 85%. For the same compound, the pIC50 (human Dock5) was 4.49. In the case of `COc1ccc(CN2CC[C@@]3(C2)[C@@H](O)CN(c2ccccc2)S3(=O)=O)cc1F` (racemic) [E211, rac-(4S,5R)-7-(3-fluoro-4-methoxybenzyl)-4-hydroxy-2-phenyl-1-thia-2,7-diazaspiro[4.4]nonane 1,1-dioxide], the inhibition at 50 µM under setting [1] is 90%. The negative logarithm of the IC50 (pIC50) (human Dock5) is 4.36. In the case of `O=S1(=O)N(c2ccccc2)C[C@H](O)[C@]12CCN(Cc1ccccc1)C2` [E118], the Inhibition under setting [4] was 85% (2×) and 60% and 55%. `O=S1(=O)N(c2ccccc2)C[C@@H](O)[C@]12CCN(Cc1ccccc1)C2` [E119]: the inhibition at 100 µM under setting [5] stood at 25%. Turning to `CN1C[C@H](O)[C@]2(CCN(Cc3ccccc3)C2)S1(=O)=O` [E120], the Inhibition entry under setting [6] is “Negative”. The same measure, in the same setting: the same measure for `CN1C[C@@H](O)[C@]2(CCN(Cc3ccccc3)C2)S1(=O)=O` [E121]: “Negative”. Turning to `O=S1(=O)N(c2ccccc2)C[C@H](O)[C@]12CCNC2` [E123], the inhibition at 100 µM under setting [5] came to 10%.

On to `CO[C@H]1CN(C)S(=O)(=O)[C@@]12CCN(Cc1ccccc1)C2` [E124], for which the Inhibition result under setting [6] is reported as “Negative”. On to `CO[C@@H]1CN(C)S(=O)(=O)[C@@]12CCN(Cc1ccccc1)C2` [E125], for which the Inhibition entry under setting [6] is on record as “Negative”. For `CN1C[C@H](Oc2ccccn2)[C@]2(CCN(Cc3ccccc3)C2)S1(=O)=O` [E126], under setting [5], the inhibition at 100 µM worked out at 10%. As to `O=S1(=O)N(c2ccccc2)C[C@H](O)[C@]12CCN(Cc1ccc(F)cc1)C2` [E127], the Inhibition under setting [4] is 40% and 50% and 85% and 90%.

Under “HEK-293T, Table 2, human Dock5 DHR2, at 50µM”, `O=S1(=O)N(c2ccccc2)C[C@H](O)[C@]12CCN(Cc1cccc(C(F)(F)F)c1)C2` [E128] returned an inhibition at 50 µM of 70%. The inhibition at 100 µM under setting [5] was 90%. Turning to `N#Cc1ccc(CN2CC[C@@]3(C2)[C@@H](O)CN(c2ccccc2)S3(=O)=O)cc1` [E129], the Inhibition under setting [4] was 70% and 90% and 95%.

Regarding `CS(=O)(=O)c1ccc(CN2CC[C@@]3(C2)[C@@H](O)CN(c2ccccc2)S3(=O)=O)cc1` [E131], the Inhibition under setting [4] was 50% and 70% and 90%. `O=S1(=O)N(c2ccccc2)C[C@H](O)[C@]12CCN(Cc1ccc3ccccc3c1)C2` [E132] returned an inhibition at 10 µM (HEK-293T, Table 2, human Dock5 DHR2, at 10µM) of 50%. For the same compound, the inhibition at 100 µM under setting [5] is 70%. The compound also registered an Inhibition (Table 2, human Dock5 DHR2, at 10µM) of 60%. Regarding `CC(=O)N1CC[C@@]2(C1)[C@@H](O)CN(c1ccccc1)S2(=O)=O` [E133], the inhibition at 100 µM under setting [5] amounted to 5%. Consider `O=C(CC1CCCC1)N1CC[C@@]2(C1)[C@@H](O)CN(c1ccccc1)S2(=O)=O` [E135], for which the Inhibition under setting [4] was 70% and 50% and 95%.

Regarding `Cc1cc(C(=O)N2CC[C@@]3(C2)[C@@H](O)CN(c2ccccc2)S3(=O)=O)no1` [E136], the inhibition at 100 µM under setting [5] was determined as 30%. On to `O=C(c1ccccc1)N1CC[C@@]2(C1)[C@@H](O)CN(c1ccccc1)S2(=O)=O` [E137], for which the Inhibition under setting [4] was 70% and 40% and 15%.

For `CS(=O)(=O)N1CC[C@@]2(C1)[C@@H](O)CN(c1ccccc1)S2(=O)=O` [E138], the inhibition at 100 µM under setting [5] worked out at 30%. For `O=S1(=O)N(c2ccccc2)C[C@@H](O)[C@]12CCN(Cc1ccccc1F)C2` [E139], the Inhibition under setting [4] was 60% and 10%.

Consider `COC(=O)c1ccc(CN2CC[C@@]3(C2)[C@H](O)CN(c2ccccc2)S3(=O)=O)cc1` [E140], for which, under setting [5], the inhibition at 100 µM stood at 50%. As to `O=S1(=O)N(c2ccccc2)C[C@H](O)[C@]12CCN(CC1CCCCC1)C2` [E198], the Inhibition under setting [2] is 95% and 10% and 85%. For `Cc1noc(C)c1CN1CC[C@@]2(C1)[C@@H](O)CN(c1ccccc1)S2(=O)=O` [E199], under setting [3], the inhibition at 100 µM was 40%. Also, the Inhibition under setting [7] turned out to be 40% / 40%. In the case of `Cn1cc(CN2CC[C@@]3(C2)[C@@H](O)CN(c2ccccc2)S3(=O)=O)cn1` [E201], under setting [2], the Inhibition is 60% and 10% (2×). For the compound `O=S1(=O)N(c2ccccc2)C[C@H](O)[C@]12CCN(Cc1ccc3c(c1)OCO3)C2` [E206], the Inhibition under setting [2] was 50% and 100% and 70%. For `O=S1(=O)N(c2ccccc2)C[C@H](O)[C@]12CCN(C1CCCCCC1)C2` [E207], the inhibition at 100 µM under setting [3] is 20%. Take `O=S1(=O)N(c2ccccc2)C[C@H](O)[C@]12CCN(Cc1cccs1)C2` [E208]: under setting [3], the inhibition at 100 µM came to 35%. As to `COc1cc(CN2CC[C@@]3(C2)[C@@H](O)CN(c2ccccc2)S3(=O)=O)cc(OC)c1` [E209], under setting [3], the inhibition at 100 µM stood at 35%.

With `O=S1(=O)N(c2ccccc2)C[C@H](O)[C@]12CCN(Cc1ccc3[nH]ccc3c1)C2` [E212], under setting [3], the inhibition at 100 µM was found to be 98%. Moreover, under setting [2], the Inhibition was 100%. For `CN(C)c1ccc(CN2CC[C@@]3(C2)[C@@H](O)CN(c2ccccc2)S3(=O)=O)cc1` [E213], the inhibition at 100 µM under setting [3] is 90%. The compound also returned an Inhibition under setting [7] of 90%/ 90%.

Regarding `N#Cc1cccc(CN2CC[C@@]3(C2)[C@@H](O)CN(c2ccccc2)S3(=O)=O)c1` [E214], the Inhibition under setting [2] is 90% and 50%. Consider `O=S1(=O)N(c2ccccc2)C[C@H](O)[C@]12CCN(CCc1ccccc1)C2` [E217], for which, under setting [5], the inhibition at 100 µM is 25%. `O=S1(=O)N(Cc2ccccc2)C[C@H](Oc2ccccn2)[C@]12CCN(Cc1ccccc1)C2` [E224]: the inhibition at 100 µM under setting [3] was 20%. Take `CO[C@H]1CN(Cc2ccccc2)S(=O)(=O)[C@@]12CCN(Cc1ccccc1)C2` [E225]: the inhibition at 100 µM under setting [3] stood at 35%. As to `O=C1N(c2cccc(F)c2)CCC12CCN(Cc1cccc(Cl)c1)C2` (centres unmarked) [E226, 7-(3-chlorobenzyl)-2-(3-fluorophenyl)-2,7-diazaspiro[4.4]nonan-1-one], under setting [1], the inhibition at 50 µM turned out to be 55%. The same compound showed a negative logarithm of the IC50 (pIC50) (human Dock5) of 4.70. For the compound `COc1ccc(N2CCC3(CCN(Cc4cccc(Cl)c4)C3)C2=O)cc1OC` (centres unmarked) [E227], the Inhibition under setting [2] was 90% and 50% and 60%.
